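Briefly, cells in 96-well plates were exposed to five compound concentrations for 48 h, and endpoints were estimated by linear interpolation. Definition used: TGI = concentration required for complete inhibition of growth.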
These compounds were tested on SK-MEL-2 melanoma (assay: NCI anticancer screen, dose series, 48 h).

Row | SMILES | TGI [µM]
1 | O=C(O)CCNCCCNCCC(=O)O | > 100
2 | CN(C)N=Nc1ccc(C(N)=O)cc1 | > 100

Each compound was assayed on SK-MEL-28 melanoma (assay: NCI anticancer screen, dose series, 48 h).

Row | SMILES | TGI [µM]
3 | C=C(C)C(=O)OC1C/C(CO)=C\C(O)C/C(C)=C/C2OC(=O)C(=C)C21 (stereo not given) | 33.4
4 | COc1cc2ccnc([C@@H](OC(=O)c3ccccc3)c3ccc(OC)c(OC)c3OC)c2cc1OC | > 100
5 | O=C(O)CCNCCCNCCC(=O)O | > 100
6 | CN(C)N=Nc1ccc(C(N)=O)cc1 | > 100

The compounds below were run on SK-MEL-5 melanoma (assay: NCI anticancer screen, dose series, 48 h).

Row | SMILES | TGI [µM]
7 | C=C(C)C(=O)OC1C/C(CO)=C\C(O)C/C(C)=C/C2OC(=O)C(=C)C21 (stereo not given) | 44.1
8 | COc1cc2ccnc([C@@H](OC(=O)c3ccccc3)c3ccc(OC)c(OC)c3OC)c2cc1OC | 56.6
9 | O=C(O)CCNCCCNCCC(=O)O | > 100
10 | CN(C)N=Nc1ccc(C(N)=O)cc1 | > 100

These compounds were tested on SK-OV-3 ovarian (assay: NCI anticancer screen, dose series, 48 h).

Row | SMILES | TGI [µM]
11 | C=C(C)C(=O)OC1C/C(CO)=C\C(O)C/C(C)=C/C2OC(=O)C(=C)C21 (stereo not given) | > 100
12 | COc1cc2ccnc([C@@H](OC(=O)c3ccccc3)c3ccc(OC)c(OC)c3OC)c2cc1OC | > 100
13 | O=C(O)CCNCCCNCCC(=O)O | > 100
14 | CN(C)N=Nc1ccc(C(N)=O)cc1 | > 100

Each compound was assayed on SN12C renal (assay: NCI anticancer screen, dose series, 48 h).

Row | SMILES | TGI [µM]
15 | C=C(C)C(=O)OC1C/C(CO)=C\C(O)C/C(C)=C/C2OC(=O)C(=C)C21 (stereo not given) | 38.8
16 | COc1cc2ccnc([C@@H](OC(=O)c3ccccc3)c3ccc(OC)c(OC)c3OC)c2cc1OC | > 100
17 | O=C(O)CCNCCCNCCC(=O)O | > 100
18 | CN(C)N=Nc1ccc(C(N)=O)cc1 | > 100

These compounds were tested on SNB-19 CNS (assay: NCI anticancer screen, dose series, 48 h).

Row | SMILES | TGI [µM]
19 | C=C(C)C(=O)OC1C/C(CO)=C\C(O)C/C(C)=C/C2OC(=O)C(=C)C21 (stereo not given) | > 100
20 | COc1cc2ccnc([C@@H](OC(=O)c3ccccc3)c3ccc(OC)c(OC)c3OC)c2cc1OC | > 100
21 | O=C(O)CCNCCCNCCC(=O)O | > 100
22 | CN(C)N=Nc1ccc(C(N)=O)cc1 | > 100

Each compound was assayed on SNB-75 CNS (assay: NCI anticancer screen, dose series, 48 h).

Row | SMILES | TGI [µM]
23 | C=C(C)C(=O)OC1C/C(CO)=C\C(O)C/C(C)=C/C2OC(=O)C(=C)C21 (stereo not given) | > 100
24 | COc1cc2ccnc([C@@H](OC(=O)c3ccccc3)c3ccc(OC)c(OC)c3OC)c2cc1OC | > 100
25 | O=C(O)CCNCCCNCCC(=O)O | > 100
26 | CN(C)N=Nc1ccc(C(N)=O)cc1 | > 100

The compounds below were run on SNB-78 CNS (assay: NCI anticancer screen, dose series, 48 h).

Row | SMILES | TGI [µM]
27 | C=C(C)C(=O)OC1C/C(CO)=C\C(O)C/C(C)=C/C2OC(=O)C(=C)C21 (stereo not given) | > 100
28 | COc1cc2ccnc([C@@H](OC(=O)c3ccccc3)c3ccc(OC)c(OC)c3OC)c2cc1OC | > 100
29 | CN(C)N=Nc1ccc(C(N)=O)cc1 | > 100

What follows are compounds tested on SR leukemia (assay: NCI anticancer screen, dose series, 48 h).

Row | SMILES | TGI [µM]
30 | C=C(C)C(=O)OC1C/C(CO)=C\C(O)C/C(C)=C/C2OC(=O)C(=C)C21 (stereo not given) | 50.5
31 | CN(C)N=Nc1ccc(C(N)=O)cc1 | > 100

The compounds below were run on SW-620 colon (assay: NCI anticancer screen, dose series, 48 h).

Row | SMILES | TGI [µM]
32 | C=C(C)C(=O)OC1C/C(CO)=C\C(O)C/C(C)=C/C2OC(=O)C(=C)C21 (stereo not given) | 33.3
33 | COc1cc2ccnc([C@@H](OC(=O)c3ccccc3)c3ccc(OC)c(OC)c3OC)c2cc1OC | > 100
34 | O=C(O)CCNCCCNCCC(=O)O | > 100
35 | CN(C)N=Nc1ccc(C(N)=O)cc1 | > 100

The compounds below were run on TK-10 renal (assay: NCI anticancer screen, dose series, 48 h).

Row | SMILES | TGI [µM]
36 | C=C(C)C(=O)OC1C/C(CO)=C\C(O)C/C(C)=C/C2OC(=O)C(=C)C21 (stereo not given) | 41.2
37 | COc1cc2ccnc([C@@H](OC(=O)c3ccccc3)c3ccc(OC)c(OC)c3OC)c2cc1OC | > 100
38 | O=C(O)CCNCCCNCCC(=O)O | > 100
39 | CN(C)N=Nc1ccc(C(N)=O)cc1 | > 100

What follows are compounds tested on U251 CNS (assay: NCI anticancer screen, dose series, 48 h).

Row | SMILES | TGI [µM]
40 | C=C(C)C(=O)OC1C/C(CO)=C\C(O)C/C(C)=C/C2OC(=O)C(=C)C21 (stereo not given) | > 100
41 | COc1cc2ccnc([C@@H](OC(=O)c3ccccc3)c3ccc(OC)c(OC)c3OC)c2cc1OC | > 100
42 | O=C(O)CCNCCCNCCC(=O)O | > 100
43 | CN(C)N=Nc1ccc(C(N)=O)cc1 | > 100

These compounds were tested on UACC-257 melanoma (assay: NCI anticancer screen, dose series, 48 h).

Row | SMILES | TGI [µM]
44 | COc1cc2ccnc([C@@H](OC(=O)c3ccccc3)c3ccc(OC)c(OC)c3OC)c2cc1OC | > 100
45 | CN(C)N=Nc1ccc(C(N)=O)cc1 | > 100

What follows are compounds tested on UACC-62 melanoma (assay: NCI anticancer screen, dose series, 48 h).

Row | SMILES | TGI [µM]
46 | C=C(C)C(=O)OC1C/C(CO)=C\C(O)C/C(C)=C/C2OC(=O)C(=C)C21 (stereo not given) | 39.1
47 | COc1cc2ccnc([C@@H](OC(=O)c3ccccc3)c3ccc(OC)c(OC)c3OC)c2cc1OC | > 100
48 | O=C(O)CCNCCCNCCC(=O)O | > 100
49 | CN(C)N=Nc1ccc(C(N)=O)cc1 | > 100

These compounds were tested on UO-31 renal (assay: NCI anticancer screen, dose series, 48 h).

Row | SMILES | TGI [µM]
50 | C=C(C)C(=O)OC1C/C(CO)=C\C(O)C/C(C)=C/C2OC(=O)C(=C)C21 (stereo not given) | > 100
51 | COc1cc2ccnc([C@@H](OC(=O)c3ccccc3)c3ccc(OC)c(OC)c3OC)c2cc1OC | 76.3
52 | CN(C)N=Nc1ccc(C(N)=O)cc1 | > 100

What follows are compounds tested on XF 498 CNS (assay: NCI anticancer screen, dose series, 48 h).

Row | SMILES | TGI [µM]
53 | C=C(C)C(=O)OC1C/C(CO)=C\C(O)C/C(C)=C/C2OC(=O)C(=C)C21 (stereo not given) | 29.3
54 | O=C(O)CCNCCCNCCC(=O)O | > 100
55 | CN(C)N=Nc1ccc(C(N)=O)cc1 | > 100

From PubChem BioAssay (NCI)
